The values below come from article PMC7906020, “Trp-Containing Antibacterial Peptides Impair Quorum Sensing and Biofilm Development in Multidrug-Resistant Pseudomonas aeruginosa and Exhibit Synergistic Effects With Antibiotics” (Frontiers in Microbiology, 2021).

In brackets after ≈: the same amount, converted by molar mass. Several values for one entry are separate records, joined by “and”; a condition that tells them apart may be missing. Equal entries are not always repeated. Peptide text beside a SMILES is read from it. Some results are limits rather than exact numbers.

For data set [1] the following is noted: cited from earlier work. The source says: Supplement Table_1.docx, table 1: Table S1 Biological characteristics and antibacterial activities of the Trp-containing antimicrobial peptides (32) | column: Hemolysis (μM)
Data set [2] concerns MRPA0108 strain. The note with it: previous study, ref Han et al., 2020; cited from earlier work. The source says: Supplement Table_1.docx, table 1: Table S1 Biological characteristics and antibacterial activities of the Trp-containing antimicrobial peptides (32) | column: MIC(μM)
In data set [3] the test system is rhamnolipid production in MRPA0108. The data set can be described thus: Rhamnolipid production, orcinol method. It is filed as cell-based, Pseudomonas aeruginosa. Conditions: peptide at 1/4 × MIC, 24 h, absorbance 420 nm, vs control, triplicate. As for the experimental part:
(§1) The culture supernatant was obtained after centrifugation at 12,000×g for 10 min. (1) LasB elastase activity was measured using elastin-Congo red (ECR) as the substrate, as described by [Pattnaik et al. (2018)]. Briefly, 100 μl of the culture supernatant was added to 900 μl of ECR buffer (100 mM Tris-HCl, 1 mM CaCl2, pH 7.5) containing 10 mg of ECR and then incubated with shaking at 37°C for 18 h. Then, 100 μl of 0.12 M EDTA was added to stop the reaction. The insoluble ECR was removed by centrifugation, and the supernatant absorbance was measured at 495 nm. The optical density (OD) 495 nm/OD 600 nm represents the elastase activity. (2) LasA protease activity was measured as follows ([Pattnaik et al., 2018]): first, the culture supernatant was filtered to remove the bacterial cells, and then 150 μl of sterile-filtered supernatant was added to 2% azocasein (prepared in 50 mM Tris-HCl) and incubated for 4 h at 37°C. Trichloroacetic acid (TCA, 10%) was added to precipitate the undigested substrate. After centrifugation at 10,000 rpm for 10 min, 1 M NaOH was added to the supernatant, and the relative protease activity was measured at OD 440 nm. (3) The pyocyanin assay was based on the absorbance of excreted pyocyanin at 520 nm in an acidic solution ([Kong et al., 2005]). Three milliliters of culture supernatant were mixed with 2 ml of chloroform for 20 min, and then the pyocyanin from the chloroform phase was reextracted using 0.2 M HCl for 15 min to obtain a pink-colored pyocyanin solution. The OD 520 nm was measured to evaluate the change in pyocyanin content. (4) Rhamnolipid detection was carried out as previously described ([Wittgens et al., 2011]). Briefly, 500 μl of culture supernatant was mixed with 500 μl of ethyl acetate and vortexed vigorously for 15 s to extract rhamnolipid. After centrifugation at 10,000×g for 5 min at 4°C, the organic phase containing rhamnolipids was obtained and evaporated at room temperature overnight. The rhamnolipid extract dissolved in ultrapure water was mixed with orcinol reagent (0.19% orcinol in 53% H2SO4) and incubated at 80°C for 30 min. The absorbance was measured at 420 nm. (5) The level of C4-HSL was quantified by GC-MS as previously described ([Guo et al., 2012]).

Data set [4] relates to MRPA0108 biofilms. The data set can be described thus: Confocal laser scanning microscopy of biofilms (LIVE/DEAD staining). Conditions: 24 h; for percentage of dead/live cells in biofilm: SYTO9/PI, control 8.7%. It is filed as cell-based, Pseudomonas aeruginosa. Here is the method:
Biofilms of MRPA0108 were visualized by confocal microscopy. Mid-log growth-phase bacteria were diluted to 1 × 10^7 CFU/ml. […] LB liquid medium and erythromycin were used as negative and positive controls, respectively. After incubation, the supernatant was removed, and the slides were washed and stained in a dark environment for 30 min using a LIVE/DEAD BacLight^TM Bacterial Viability Kit (Invitrogen, Life Technologies, Shanghai, China). The slides were washed three times and imaged with a confocal laser scanning microscope (LSM 710, Carl Zeiss, Germany) with excitation/emission wavelengths of 480/500 and 490/635 nm for SYTO9 and propidium iodide (PI), respectively. SYTO9 was used to indicate live bacteria, and PI was used to mark dead bacteria.

Data set [5] relates to MRPA0108 cells. The data set can be described thus: Intracellular antibiotic assay by HPLC. It is filed as cell-based, Pseudomonas aeruginosa. Conditions: RP-HPLC of cell lysate. As for the experimental part:
Mid-log growth-phase bacteria were diluted to 1 × 10^8 CFU/ml and treated with I1W or L12W at concentrations ranging from 3.13 to 50 μM for 12 h at 37°C. After induction, the cultures were harvested by centrifugation at 12,000 rpm for 2 min, washed three times with PBS buffer (pH 7.2), and then incubated with lysozyme (20 mg/ml) at 37°C for 1 h in a water bath. After centrifugation at 12,000 rpm for 5 min, the supernatant of the cell lysates was collected, added to methanol (1:3) and vortexed to precipitate proteins. After recentrifugation at 12,000 rpm for 5 min, the supernatant was measured by using HPLC with a mobile phase of 0.1% trifluoroacetic acid/methanol (92:8, v/v) and a flow rate of 0.7 ml/min.

In data set [6] the test system is LasB elastase of MRPA0108. The data set can be described thus: LasB elastase activity, elastin-Congo red method. It is filed as cell-based, Pseudomonas aeruginosa. Conditions: peptide at 1/4 × MIC, 24 h, 37°C; ECR substrate, OD495/OD600; vs control; triplicate. Here is the method:
as §1, with “The rhamnolipid extract dissolved in ultrapure water was mixed with orcinol reagent (0.19% orcinol in 53% H2SO4) and incubated at 80°C for 30 min.” left out

In data set [7] the test system is β-lactamase activity in MRPA0108 cells. The data set can be described thus: β-Lactamase activity assay (nitrocefin kit) in treated cells. It is filed as cell-based, Pseudomonas aeruginosa. Conditions: compared to control. Here is the method: β-lactamase activity was measured by using a β-lactamase assay kit (YIASEN Biotech Co., Ltd., Shanghai, China) according to the manufacturer’s instructions. Briefly, mid-log growth-phase bacteria were diluted to 1 × 10^8 CFU/ml and treated with I1W or L12W at concentrations ranging from 3.13 to 50 μM for 12 h at 37°C. After induction, the cultures were harvested by centrifugation at 5,000 rpm at 4°C, washed three times with PBS buffer (pH 7.2), and then resuspended in the same buffer. The cells were sonicated on ice for 15 min, and the cell lysates containing β-lactamase were collected by centrifugation at 12,000 rpm for 30 min at 4°C. Fifty microliters of the prepared β-lactamase-containing lysates was mixed with 50 μl of assay buffer containing nitrocefin and reacted at room temperature in a dark environment for 20 min. Nitrocefin hydrolysis was measured spectrophotometrically at 490 nm. Concurrently, the total protein content was determined with a Bradford assay using the same supernatant. One milliunit of β-lactamase is defined as 1 nanomole of nitrocefin hydrolyzed per minute per microgram of protein.

Setting [8] is: range over peptide 3.13 to 50 μM, 12 h 37°C.

Regarding `CC[C@H](C)[C@H](NC(=O)[C@H](CCCCN)NC(=O)[C@H](CO)NC(=O)[C@H](CC(C)C)NC(=O)[C@@H](NC(=O)[C@H](CCCCN)NC(=O)[C@H](CCCCN)NC(=O)[C@@H](N)Cc1c[nH]c2ccccc12)[C@@H](C)CC)C(=O)N[C@@H](CCCCN)C(=O)N[C@@H](CCCCN)C(=O)N[C@@H](CC(C)C)C(=O)N[C@@H](CC(C)C)C(=O)N[C@@H](CCCCN)C(N)=O` [I1W] (H-WKKILSKIKKLLK-NH2; N-terminus and C-terminus assumed), the Hemolysis in data set [1] was > 500 µM. Also, the MIC (usually the lowest concentration found to suppress growth) in data set [2] is 6.25 µM (≈ 10.2 µg/mL). In addition, in data set [3], the “inhibition of rhamnolipid production” value is listed as 45.2%. The average biofilm thickness in data set [4] (after treatment with low concentrations of peptide (1 × MIC or 2 × MIC), 37°C, control biofilm 6 μm) is 1.5–2.5 μm and 1.5 μm. Further, the “percentage of dead/live cells in biofilm” value was 29.9% in data set [4] (peptide at 1 × MIC) and 47.9% in data set [4] (peptide at 2 × MIC). For the same molecule, the “increase of ceftazidime content in MRPA0108 cells” value in data set [5] (peptide at its MIC) was 19%; in data set [5] (setting [8]) it was 7.5-100%. For the same molecule, the results for the “increase of levofloxacin content in MRPA0108 cells” value in data set [5] (peptide at its MIC) and in data set [5] (setting [8]) were 1% and 0.01–22%, respectively. The entries for the “increase of piperacillin content in MRPA0108 cells” value in data set [5] (peptide at its MIC) and in data set [5] (setting [8]) were 17% and 8–80%, respectively. For the same molecule, in data set [6], the “decrease of LasB elastase activity” value is reported as 21.0%. The figures for the “effect on β-lactamase activity, peptide alone” value in data set [7] (peptide alone at concentrations greater than 12.5 μM) and in data set [7] (peptide alone at low concentrations) were “reduced β-lactamase activity” and “no effect on β-lactamase activity”, respectively.
